{"source": "patent US20220152012A1", "about": "(The Regents of the University of California, priority 2020, published 2022)", "key": {"[1]": {"system": "human hepatic stellate cells from non-fibrotic subjects", "assay": "Prevention of TGF-β or H2O2-induced collagen production (Sirius Red)", "assay_type": "cell-based", "conditions": "inducer alone: H2O2 25 μM or TGF-β 20 ng/mL, 24 h, vs vehicle", "description": "Hepatic stellate cell fibrosis quantification.\nHepatic stellate cell fibrosis was assessed by measuring collagen content by Sirius Red staining kit."}, "[2]": {"system": "human hepatic stellate cells from normal non-fibrosis subjects", "assay": "ROS (DCFDA) after oxidative stress induced by palmitic acid or H2O2", "assay_type": "cell-based", "conditions": "inducer alone: palmitic acid 0.5 mM or H2O2 25 μM, vs vehicle", "description": "Reactive Oxygen Species (ROS) quantification. ROS production, as an index of oxidative stress, in stellate cells was measured using DCFDA fluorescence as described previously. In brief, cells were incubated with DCFDA (10 μmol/L) for 30 min."}, "[3]": {"conditions": "cited from earlier work"}, "[4]": {"conditions": "cited from earlier work", "remark": "listed apart in the source"}, "[5]": {"conditions": "cited from earlier work", "remark": "listed apart in the source"}}, "note": "Read-outs that look alike come from different tables or passages of the source."}
{"compound": "OO", "note": "[H2O2, hydrogen peroxide]", "values": [{"measurement": "increase of collagen content", "setting": "[1]", "value": 266, "unit": "%"}, {"measurement": "induction of stellate cell ROS levels", "setting": "[2]", "value": 5.2, "unit": "fold"}]}
{"compound": "O=C(O[C@H]1[C@H](OC(=O)c2cccnc2)[C@@H](OC(=O)c2cccnc2)[C@H](OC(=O)c2cccnc2)[C@@H](OC(=O)c2cccnc2)[C@H]1OC(=O)c1cccnc1)c1cccnc1", "note": "[inositol hexanicotinate]", "values": [{"measurement": "peak plasma level of nicotinic acid", "setting": "[3]; 1,000 mg of IHN (˜910 mg nicotinic acid equivalent), oral", "value": 0.2, "unit": "µg/mL"}, {"measurement": "time for hydrolysis of the ester bonds and release of free nicotinic acid", "setting": "[3]; human serum", "value": "more than 48 hours"}, {"measurement": "time of peak plasma levels of free nicotinic acid", "setting": "[3]; oral doses of 0.8 to 4.2 g of inositol hexanicotinate, humans", "value": "6 to 12", "unit": "h"}, {"measurement": "gastrointestinal absorption, average of orally ingested dose absorbed", "setting": "[3]; oral", "value": 70, "unit": "%"}, {"measurement": "tolerability", "setting": "[4]; in vivo", "value": "well tolerated"}, {"measurement": "management of dyslipidemia", "setting": "[4]; vs placebo (Keenan 2010)", "value": "no better than placebo"}]}
{"compound": "O=C(O)c1cccnc1", "note": "[niacin, nicotinic acid]", "values": [{"measurement": "absorption", "setting": "[5]; oral amounts of 3-4 grams", "value": "nearly complete"}, {"measurement": "time of peak plasma levels of free nicotinic acid", "setting": "[5]; oral dose of 1000 mg of nicotinic acid", "value": "0.5 to 1", "unit": "h"}, {"measurement": "eliminated by the kidneys as unchanged niacin or nicotinuric acid", "setting": "[5]; oral pharmacologic dose", "value": "Approximately 88%"}, {"measurement": "peak plasma level of nicotinic acid", "setting": "[5]; single oral dose of 1000 mg nicotinic acid", "value": 30, "unit": "µg/mL"}]}
{"compound": "CCCCCCCCCCCCCCCC(=O)O", "note": "[palmitic acid]", "values": [{"measurement": "induction of stellate cell ROS levels", "setting": "[2]", "value": 3.6, "unit": "fold"}]}
{"compound": "TGF-β", "values": [{"measurement": "increase of collagen content", "setting": "[1]", "value": 233, "unit": "%"}]}
